# Results taken from patent publication US20110203018A1, “Use of Carboxamides on Cultivated Plants” (BASF SE, priority 2008, published 2011).
# Assays:
# [1] = system: common rust (Puccinia sorghi); experiment: Field trial: efficacy against common rust in maize (infected leaf area); type: in vivo
# Excerpt: The variety DKB 390 was planted at a seeding rate of 60,000 plants per ha. Row spacing was 80 cm. Plot size was 30 m^2.
# [2] = system: maize; experiment: Field trial: maize grain yield and thousand grain weight (TGW); type: in vivo
# Description: The variety DKB 390 was planted at a seeding rate of 60,000 plants per ha. Row spacing was 80 cm. Plot size was 30 m^2. […] At maturity, the plants were harvested and the grain yield and thousand grain weight (TGW) were measured (Tab. 2).
# [3] = system: soybeans; experiment: Field trial: soybean grain yield and thousand grain weight (TGW); type: in vivo; conditions: for Grain Yield (dt/ha) / TGW: soybeans, field, EC; for Grain Yield (dt/ha): Control 16.6; for TGW: Control 113.9
# [4] = system: Rhizoctonia solani; experiment: Field trial: efficacy against Rhizoctonia solani in rice (infected leaf area, frequency of infection); type: in vivo
# Description: Imidazolinone tolerant rice ([…]) was grown in 2008 at Washington, 7033 Highway 103, LA, USA. […] Row spacing was 18 cm. Plot size was 27.5 m^2. […] Infection with Rhizoctonia solani 77 days after treatment with COMPOUND 2 was assessed (Tab. 3) by estimating the infected leaf area and frequency of infection in 10 randomly chosen plants per plot.
# [5] = system: Asian Soybean Rust (Phakopsora pachyrhizi); experiment: Field trial: efficacy against Asian Soybean Rust in soybeans (infected leaf area); conditions: for Efficacy against soybean rust (%): soybeans, field, EC, assessed 20 days after last treatment, infection in Control 95% infected leaf area
# [6] = system: rice; experiment: Field trial: rice grain yield; type: in vivo
# Description: Imidazolinone tolerant rice ([…]) was grown in 2008 at Washington, 7033 Highway 103, LA, USA. […] Row spacing was 18 cm. Plot size was 27.5 m^2. […] At maturity, the plants were harvested and the grain yield was measured (Tab. 3).
# [7] = system: maize; experiment: Field trial: green leaf retention in maize (green leaf area); type: in vivo
# Excerpt: The variety DKB 390 was planted at a seeding rate of 60,000 plants per ha. Row spacing was 80 cm. Plot size was 30 m^2. […] Green leaf retention was estimated in treated and control plants by estimating the green leaf area 28 days after treatment in 10 randomly chosen plants per plot.
# [8] = system: oilseed rape; experiment: Field trial: oilseed rape grain yield; type: in vivo
# Description: Oilseed rape was grown in 2002 at the Verde in France. The variety Colosse was planted at a seeding rate of 3 kg/ha. Row spacing was 17 cm. Plot size was 30 m^2. […] The formulation was diluted in a total spray volume of 300 l/ha.
# At maturity, the plants were harvested and the grain yield was measured (Tab. 4).
# [9] = system: Leptosphaeria maculans; experiment: Field trial: Leptosphaeria maculans in oilseed rape (stem scoring, disease index); type: in vivo
# [10] = 30 g AI/ha applied twice (BBCH 55/61 and 65/71)
# [11] = 50 g AI/ha applied twice (application time BBCH 19)
# [12] = herbicide tolerant oilseed rape variety
smiles,measurement,setting,value
"Cn1cc(C(=O)Nc2ccccc2-c2cc(F)c(F)c(F)c2)c(C(F)F)n1 [COMPOUND 2, N-(3′,4′,5′-trifluorobiphenyl-2-yl)-3-difluoromethyl-1-methyl-1H-pyrazole-4-carboxamide]",Efficacy against rust (%),"[1]; maize DKB 390, field, 50 g/ha, EC, BBCH 51/55, 28 days after treatment, infection in Control 8.8% infected leaf area",88.6%
same,activity against common rust in maize,"[1]; maize field trial, EC 62.5 g/l, 0.8 l/ha, once, 28 days after treatment",good activity
same,activity against common rust versus expected from single effects,[1]; transgenic glyphosate tolerant and/or insect resistant maize varieties,increased
same,"disease control, combination of treatment with transgenic variety",[1]; transgenic maize variety,synergistic effects
same,Grain Yield (dt/ha),"[2]; maize DKB 390, field, 50 g/ha, EC, BBCH 51/55, Control 49.2",55.2 dt/ha
same,TGW,"[2]; maize DKB 390, field, 50 g/ha, EC, BBCH 51/55, Control 325",333 g
same,grain weight of harvested grain over the untreated control,[2]; maize field trial,increased
same,grain yield compared to the untreated control,[2]; maize field trial,increase
same,"grain yield, combination of treatment with transgenic variety",[2]; transgenic maize variety,synergistic effects
same,increase in grain yield and in grain weight versus expected from single effects,[2]; transgenic maize variety,much bigger
same,grain weight of harvested grain versus the untreated,[3]; soybean field trial,increased
same,grain yield compared to the untreated control,[3]; soybean field trial,increase
same,Grain Yield (dt/ha),[3]; [10],21.6 dt/ha
same,TGW,[3]; [10],143.5 g
same,Grain Yield (dt/ha),[3]; [11],22.9 dt/ha
same,TGW,[3]; [11],144.1 g
same,"grain yield, combination of treatment with transgenic variety",[3]; transgenic soybean variety,synergistic effects
same,increase in grain yield and in grain weight versus expected from single effects,[3]; transgenic soybean variety,much bigger
same,"disease control, combination of treatment with Imidazolinone tolerance trait",[4]; CL 161 rice,synergistic effects
same,Efficacy against Rhizctonia (%) Frequency,"[4]; Imidazolinone tolerant rice CL 161, field, 50 g/ha, EC, BBCH 32/34, 77 days after treatment",45.6%
same,Efficacy against Rhizctonia (%) Infection,"[4]; Imidazolinone tolerant rice CL 161, field, 50 g/ha, EC, BBCH 32/34, 77 days after treatment, infection in Control 8% infected leaf area",50%
same,activity against Rhizoctonia compared with a variety without the herbicide tolerance trait,[4]; Imidazolinone tolerant rice variety (CL 161),higher
same,activity against Rhizoctonia in rice,"[4]; rice field trial, EC 62.5 g/l, 0.8 l/ha, once, 77 days after treatment",active
same,activity against Asian Soybean Rust,"[5]; soybean field trial, EC 62.5 g/l, 0.48 l/ha and 0.8 l/ha, applied twice, 20 days after last treatment",good activity
same,Efficacy against soybean rust (%),[5]; [10],34%
same,Efficacy against soybean rust (%),[5]; [11],46%
same,activity against Asian Soybean Rust versus expected from single effects,[5]; transgenic glyphosate tolerant soybean variety,increased
same,"disease control, combination of treatment with transgenic variety",[5]; transgenic soybean variety,synergistic effects
same,"grain yield, combination of treatment with Imidazolinone tolerance trait",[6]; CL 161 rice,synergistic effects
same,increase in grain yield compared with a conventional variety,[6]; Clearfield variety (CL 161),bigger
same,Grain Yield (dt/ha),"[6]; Imidazolinone tolerant rice CL 161, field, 50 g/ha, EC, BBCH 32/34, Control 37.76",54.28 dt/ha
same,grain yield compared to the untreated control,[6]; rice field trial,increase
same,Green Leaf Area (%),"[7]; maize DKB 390, field, 50 g/ha, EC, BBCH 51/55, 28 days after treatment, Control 34",40%
same,green leaf area compared to control plants,"[7]; maize field trial, 28 days after treatment",increase
same,increase in green leaf tissue versus expected from combination of effects,[7]; transgenic maize plants,bigger
"O=C(Nc1ccccc1-c1ccc(Cl)cc1)c1cccnc1Cl [BOSCALID, boscalid]","grain yield, combination of treatment with herbicide tolerant variety",[8]; [12],synergistic effects
same,increase in grain yield versus expected from single effects,[8]; [12],bigger
same,Grain Yield (dt/ha),"[8]; oilseed rape Colosse, field, 50 g/ha, WG (Cantus), BBCH 16, Control 33.9",49.3 dt/ha
same,grain yield compared to the untreated control,[8]; oilseed rape field trial,increase
same,activity against Leptosphaeria maculans versus expected from combination of effects,[9]; herbicide tolerant (imidazolinone resistance) oilseed rape variety,increased
same,"disease control, combination of treatment with herbicide tolerant variety",[9]; [12],synergistic effects
same,LEPTMA disease index,"[9]; oilseed rape Colosse, field, 50 g/ha, WG (Cantus), BBCH 16, 209 days after treatment, Control 3.17, infection rate in Control 49%",1.71
same,activity against Leptosphaeria maculans in oilseed rape,"[9]; oilseed rape field trial, Cantus WG 500 g/kg, 0.5 kg/ha, once, 209 days after treatment",good activity
